Assay [1] concerns thoracodorsal arteries (TDA).
Assay [2] deals with thoracodorsal arteries (TDA). As to the kind of experiment: tissue or blood. The settings on record: Mus musculus.
The next assay concerns abdominal aortic rings. As to the kind of experiment: Wire myography of abdominal aortic rings. Particulars: for EC50: Mus musculus, read-out: EC50 of phenylephrine, aortic ring contraction. It is filed as cell-based, mouse.
For a further assay, the system named is mice. As to the kind of experiment: Cecal ligation puncture (CLP) model of sepsis. It is filed as in vivo, mouse. The text has this: Knockout of Panx1 specifically from the endothelium or treatment of mice with PanX both reversed the decreased in heat rate typically observed after induction of sepsis. […] Knockout of Panx1 specifically from the endothelium or treatment of mice with PanX both reversed the increased level of blood urea nitrogen, which is due in large part to increased vein permeability in sepsis. The three groups in each graph are Control (left bar), Panx1 Endothelial Cell Knockout Mouse (middle bar), and Control+IL2 (PanX) Peptide treatment.

Another assay addresses T1, Panx1 (Mus musculus, UniProt Q9JIP4).
T1 construct: we progressively substituted amino acids in this region of full-length Panx1 with alanine residues; HA; expressed in transfected cells; host or cells: HEK293T cells, transient co-transfection with alpha1DAR plasmid (Origene, NM_013460, C-terminal Myc-DDK)
Put plainly: ATP release from HEK293 cells cotransfected with mPanx1 and α1DAR. It is filed as cell-based. Particulars: peptide 3 μmol/L, phenylephrine 100 μmol/L. Here is the method: Human Embryonic Kidney (HEK) 293T cells were cultured as previously described, and were used until passage 20. For ATP measurements, 50,000 cells/well were seeded in 24 well plates pre-coated with 0.01% poly-L-lysine, and transfected using Lipofectamine 2000 (Invitrogen) according to the manufacturer protocol. Briefly, 0.4 μg of α1DAR and 0.4 μg of Panx1^WT, Panx1^KYP>AAA, Panx1^IVEQ>AAA or Panx1^YLK>AAA plasmids were added to each well along with 2 μl of Lipofectamine 2000. For electrophysiology measurements, 4 μg of α1DAR plasmid, 2 μg of Panx1^WT, Panx1^KYP>AAA, Panx1^IVEQ>AAA or Panx1^YLK>AAA plasmids, and 0.5 μg of GFP plasmid were mixed with 10 μl Lipofectamine 2000 and added to a well of 6-well plate seeded with ˜70% confluent HEK cells. Cells were split the next morning and plated onto a glass coverslip for recording. […]
The ectonucleotidase inhibitor ARL67156 (300 μmol/L) was applied to each well. […] The ATP concentration was measured by adding 50 μL of luciferin:luciferase reagent (ATP bioluminescence assay kit HSII; Roche), which was injected into each well and the luminescence was immediately recorded. Data are expressed as a percent increase in ATP concentration compared to unstimulated condition. […] Data were analyzed using a Kruskall Wallis test (non-parametric one-way ANOVA) followed by Dunn's post-hoc test.

Where [3] appears, read: aortic rings from Cre^+/Panx1^FL with tamoxifen.
The mark [4] stands for this setting: aortic rings from Cre^+/Panx1^FL, peanut oil.

Results on three compounds are retold here after US10314883B2, “Compositions and methods for regulating blood pressure” (University of Virginia Patent Foundation, priority 2015, dated 2019).

Read-outs that look alike come from different tables or passages of the source.

T1 sequence (Q9JIP4 whole entry): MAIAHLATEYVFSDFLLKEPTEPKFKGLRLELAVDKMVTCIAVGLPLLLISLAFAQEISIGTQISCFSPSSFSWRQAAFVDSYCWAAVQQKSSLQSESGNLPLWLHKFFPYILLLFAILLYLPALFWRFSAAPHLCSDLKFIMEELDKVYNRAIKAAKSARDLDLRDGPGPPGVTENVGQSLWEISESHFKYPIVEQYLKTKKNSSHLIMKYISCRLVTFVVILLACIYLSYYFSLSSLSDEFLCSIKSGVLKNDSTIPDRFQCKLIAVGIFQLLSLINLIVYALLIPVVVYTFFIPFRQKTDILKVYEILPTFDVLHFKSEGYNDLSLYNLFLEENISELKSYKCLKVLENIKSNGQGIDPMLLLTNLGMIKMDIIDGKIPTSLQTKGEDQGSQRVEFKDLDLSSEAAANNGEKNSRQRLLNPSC

As for `CNC[C@H](O)c1cccc(O)c1` [Phenylephrine, phenylephrine], the “EMAX of agonist for TDA constriction” value is on record as 69.1 ± 3.06 percentage of maximal diameter in assay [1] (TDAs from Cre^+/Panx1^FL mice, tamoxifen-injected (SMC Panx1 knockout)); 69.1±3.06 percentage of maximal diameter in assay [1] (TDAs from Cre^+/Panx1^FL mice, tamoxifen-injected (SMC Panx1 knockout), listed as phenylephrine); 53.5 ± 4.91 percentage of maximal diameter in assay [1] (TDAs from Cre^+/Panx1^WT mice, tamoxifen-injected); 46.3 ± 5.94 percentage of maximal diameter in assay [1] (TDAs from Cre^−/Panx1^FL mice, tamoxifen-injected); 51.8 ± 2.66 percentage of maximal diameter in assay [1] (TDAs from Cre^−/Panx1^WT mice, tamoxifen-injected); “approximately 50 % of maximal diameter” in assay [1] (TDAs isolated from the three control genotypes). Also, the EC50 was 7840 ± 5600 nM in assay [2] (read-out: EC50 of agonist for TDA constriction, TDAs from Cre^+/Panx1^FL mice, tamoxifen-injected (SMC Panx1 knockout)); 1790 ± 1130 nM in assay [2] (read-out: EC50 of agonist for TDA constriction, TDAs from Cre^+/Panx1^WT mice, tamoxifen-injected); 640 ± 370 nM in assay [2] (read-out: EC50 of agonist for TDA constriction, TDAs from Cre^−/Panx1^FL mice, tamoxifen-injected); 660 ± 130 nM in assay [2] (read-out: EC50 of agonist for TDA constriction, TDAs from Cre^−/Panx1^WT mice, tamoxifen-injected); 3200 ± 320 nM in the assay on abdominal aortic rings (setting [3]); 3390 ± 380 nM with abdominal aortic rings (setting [4]). The “EMAX of phenylephrine, aortic ring contraction” value is listed as 343.4 ± 69.4 percentage of constriction to KCl with abdominal aortic rings (setting [3]) and 368.8 ± 78.7 percentage of constriction to KCl in the assay with abdominal aortic rings (setting [4]).

For KYPIVEQYLKYGRKKQRRR [IL2], in the assay on mice, the “effect on decreased heart rate after induction of sepsis” value is listed as “reversed” and the “effect on increased blood urea nitrogen after induction of sepsis” value is recorded as “reversed”. Also, the “effect on phenylephrine-induced ATP release” value on Panx1 is “significantly decreased”.

Consider “scrambled intracellular loop 2 IYLYVEQKPY (SEQ ID NO: 7) linked with a TAT sequence [Scrambled IL2]”, for which the “effect on phenylephrine-induced ATP release” value at Panx1 is “no effect”.
